Reference: patent US8114911B2, “Prostaglandin compounds for the treatment of obesity” (Sucampo AG, priority 2003, dated 2012)
“Also recorded” adds a separate entry of the source.

Experiment: Body weight change in volunteers after 21 days of oral test capsules
Format: in vivo, human
Conditions: oral capsules before meals, 24, 48 or 72 μg of test substance per day for 21 days, body weight 3 weeks after initiation vs before, placebo control group increased
Protocol: 13,14-dihydro-15-keto-16,16-difluoro-PGE1 was used as the test substance. Test capsule for oral administration containing 24 μg of the test substance and placebo capsule made from inert ingredients which was identical to the test capsule were prepared.
Volunteers were divided into 4 groups. The test groups received 24, 48 and 72 μg of the test substance per day respectively and the control group received the placebo. All volunteers were instructed to take one capsule before each meal (morning-, day- and evening-time) everyday for 21 days. Test group I (27 volunteers) received 24 μg of the test substance per day by taking the test capsule at the morning time and the placebo capsule at each of the day and evening times; test group II (32 volunteers) received 48 μg of the test substance per day by taking the test capsule at each of the morning and evening times and the placebo capsule at the day time; test group III (32 volunteers) received 72 μg of the test substance by taking the test capsule three times per day. Control group (33 volunteers) received the placebo capsule every time. Volunteers were instructed to take each capsule with 8 ounces of water prior to eating a meal. Body weight was measured before and 3 weeks after the initiation of the administration.

With `CCCCC(F)(F)C(=O)CCC1C(O)CC(=O)C1CCCCCCC(=O)O` (stereo not shown) [13,14-dihydro-15-keto-16,16-difluoro-PGE1] the “changes of body weight from the pre-values” was “body weight reductions were observed in all test groups; also recorded: decreased in a dose dependent manner”.
